Data published in ChEMBL document CHEMBL1201862, “PubChem BioAssay data set” (2004).
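Each compound was tested at five concentrations against cells in 96-well plates for 48 hours. GI50: concentration for 50% inhibition of growth.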 Activity calls are given as the source filed them. Rule as the data show it: active = GI50 up to about 1.1 µM and inactive = higher.

What was measured:
Experiment in all cases: NCI anticancer screen, dose series, 48 h
[1] = system: HOP-62
[2] = system: HL-60
[3] = system: ACHN
[4] = system: SK-MEL-28
[5] = system: MCF7
[6] = system: HCT-15
[7] = system: T47D
[8] = system: A549
[9] = system: CAKI-1
[10] = system: NCI-H522
[11] = system: MDA-MB-231
[12] = system: Hs-578T
[13] = system: HCT-116
[14] = system: OVCAR-8
[15] = system: 786-0
[16] = system: A498
[17] = system: M14
[18] = system: BT-549
[19] = system: HOP-92
[20] = system: NCI-H226

Measured: GI50

Cc1cn2c(/C=C3/C(=O)Nc4cccc(Cl)c43)c(Cl)nc2s1
inactive: [1] 13.6 µM | [2] 53.7 µM | [3] 20.6 µM | [4] 1.12 µM | [5] > 100 µM | [7] > 100 µM | [8] 27 µM | [9] > 100 µM | [10] > 100 µM | [11] 15.3 µM | [12] 4.13 µM | [13] 60.1 µM | [14] > 100 µM | [15] 18.5 µM | [16] 63.2 µM | [17] 34.7 µM | [18] 22.3 µM | [19] 34.3 µM
> 100 µM: [6]

CC1(c2nc3ccccc3[nH]2)CCC(C(=O)O)C(C)(C)O1 (stereo unspecified)
> 100 µM: [6]
inactive: [1] > 100 µM | [2] > 100 µM | [3] > 100 µM | [4] > 100 µM | [20] > 100 µM | [5] > 100 µM | [7] > 100 µM | [8] > 100 µM | [9] > 100 µM | [10] > 100 µM | [11] > 100 µM | [12] > 100 µM | [13] > 100 µM | [14] > 100 µM | [15] > 100 µM | [17] > 100 µM | [18] > 100 µM | [19] > 100 µM

Cc1ccc(/N=C2\OP(=O)(Nc3ccc(C)cc3)Oc3ccccc32)cc1 (stereo unspecified)
> 100 µM: [6]
inactive: [1] > 100 µM | [2] > 100 µM | [3] > 100 µM | [4] > 100 µM | [20] > 100 µM | [5] 90.6 µM | [7] > 100 µM | [8] > 100 µM | [9] > 100 µM | [11] > 100 µM | [12] > 100 µM | [13] 87.9 µM | [14] > 100 µM | [15] > 100 µM | [16] > 100 µM | [17] 29.3 µM | [18] > 100 µM | [19] 30 µM

O=C(C(=O)n1ccc2ccccc21)c1c[nH]c2ccccc12
inactive: [1] > 10 µM | [2] > 10 µM | [3] > 10 µM | [4] > 10 µM | [20] > 10 µM | [5] > 10 µM | [7] > 10 µM | [8] > 10 µM | [9] > 10 µM | [10] > 10 µM | [11] > 10 µM | [12] > 10 µM | [13] > 10 µM | [14] > 10 µM | [15] > 10 µM | [17] > 10 µM | [18] > 10 µM | [19] > 10 µM
> 10 µM: [6]

COC(=O)C(=O)C(C(=O)C(=O)Nc1cc(C)ccc1C)c1nc2ccccc2nc1O (stereo unspecified)
inactive: [1] > 100 µM | [3] > 100 µM | [4] > 100 µM | [20] > 100 µM | [5] > 100 µM | [7] > 100 µM | [8] 85.3 µM | [9] > 100 µM | [10] > 100 µM | [11] > 100 µM | [12] 74.3 µM | [13] > 100 µM | [14] > 100 µM | [15] > 100 µM | [16] > 100 µM | [17] > 100 µM | [18] > 100 µM | [19] 26.7 µM
> 100 µM: [6]

COc1ccc2c(c1)CCC/C2=N\NS(=O)(=O)c1c(C)cc(C)cc1C
30.3 µM: [6]
inactive: [1] 43.4 µM | [3] 27.7 µM | [4] 35.1 µM | [20] 22.2 µM | [5] 37.8 µM | [7] 16.5 µM | [8] 34.9 µM | [9] 38.5 µM | [11] 30.8 µM | [12] 30.6 µM | [13] 18.3 µM | [14] 30.9 µM | [15] 19.1 µM | [16] 31.8 µM | [17] 33.2 µM | [18] 28.9 µM | [19] 20.3 µM

CCn1c(SCc2nnc(Nc3ccccc3)s2)nc2ccccc2c1=O
inactive: [1] 2.17 µM | [3] 2.85 µM | [4] 16.4 µM | [20] 2.19 µM | [5] 9.93 µM | [7] 5.57 µM | [8] 3.67 µM | [9] 3.04 µM | [10] 2.09 µM | [11] 3.18 µM | [12] 2.39 µM | [13] 1.95 µM | [14] 2.02 µM | [15] 2.02 µM | [16] 1.67 µM | [17] 10.4 µM | [18] 5.24 µM | [19] 2.57 µM
20.7 µM: [6]

O=C(O)[C@@H]1CCCN1 [PROLINE]
inactive: [1] > 100 µM | [2] > 100 µM | [3] > 100 µM | [4] > 100 µM | [20] > 100 µM | [5] > 100 µM | [7] > 100 µM | [8] > 100 µM | [10] > 100 µM | [11] > 100 µM | [12] > 100 µM | [13] > 100 µM | [14] > 100 µM | [15] > 100 µM | [16] > 100 µM | [17] > 100 µM | [18] > 100 µM | [19] > 100 µM
> 100 µM: [6]

Cc1cn([C@H]2CN(O)C[C@@H](CO)O2)c(=O)[nH]c1=O
inactive: [1] > 100 µM | [2] > 100 µM | [3] > 100 µM | [4] > 100 µM | [20] > 100 µM | [5] > 100 µM | [7] > 100 µM | [8] > 100 µM | [9] > 100 µM | [11] > 100 µM | [12] > 100 µM | [13] > 100 µM | [14] > 100 µM | [15] > 100 µM | [16] > 100 µM | [17] > 100 µM | [18] > 100 µM
> 100 µM: [6]

COC(=O)C(Cc1c[nH]c2ccccc12)NP(=O)(O)OCC1OC(n2cc(Br)c(=O)[nH]c2=O)CC1O (stereo unspecified)
inactive: [1] > 100 µM | [2] > 100 µM | [3] > 100 µM | [4] > 100 µM | [20] > 100 µM | [5] > 100 µM | [7] > 100 µM | [8] > 100 µM | [10] > 100 µM | [11] > 100 µM | [12] > 100 µM | [13] > 100 µM | [14] > 100 µM | [15] > 100 µM | [16] > 100 µM | [17] > 100 µM | [18] > 100 µM | [19] > 100 µM
> 100 µM: [6]

CCOC(=O)c1cc2c3c(cc(OC)c2[nH]1)N(C(=O)OCC)CC3
inactive: [1] > 100 µM | [2] > 100 µM | [4] > 100 µM | [20] > 100 µM | [5] > 100 µM | [7] > 100 µM | [8] > 100 µM | [9] > 100 µM | [11] > 100 µM | [12] > 100 µM | [13] > 100 µM | [14] > 100 µM | [15] > 100 µM | [16] > 100 µM | [17] > 100 µM | [18] > 100 µM | [19] > 100 µM
> 100 µM: [6]
